# From US9290511B2, “Thieno-pyrimidines, useful as potassium channel inhibitors” (XENTION LIMITED, priority 2011, dated 2016)
# pIC50: −log10 of the molar value.
# Molecular target: T1, Kir3.1/3.4 (Rattus norvegicus, UniProt P48548+P63251)
# T1 construct: expressed in transfected cells
# T1 sequence (P63251 1-501): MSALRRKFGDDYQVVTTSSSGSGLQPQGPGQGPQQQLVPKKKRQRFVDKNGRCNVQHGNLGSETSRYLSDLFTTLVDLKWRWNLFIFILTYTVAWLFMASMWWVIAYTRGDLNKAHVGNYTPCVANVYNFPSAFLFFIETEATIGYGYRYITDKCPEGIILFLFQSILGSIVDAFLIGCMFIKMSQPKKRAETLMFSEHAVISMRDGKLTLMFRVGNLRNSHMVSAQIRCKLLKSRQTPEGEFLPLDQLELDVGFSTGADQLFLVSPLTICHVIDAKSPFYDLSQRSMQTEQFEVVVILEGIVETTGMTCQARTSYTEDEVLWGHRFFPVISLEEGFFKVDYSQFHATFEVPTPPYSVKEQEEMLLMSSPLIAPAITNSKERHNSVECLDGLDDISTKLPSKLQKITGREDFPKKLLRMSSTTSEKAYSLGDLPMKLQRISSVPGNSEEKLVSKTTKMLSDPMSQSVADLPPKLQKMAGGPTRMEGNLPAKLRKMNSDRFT
# T1 sequence (P48548 1-419): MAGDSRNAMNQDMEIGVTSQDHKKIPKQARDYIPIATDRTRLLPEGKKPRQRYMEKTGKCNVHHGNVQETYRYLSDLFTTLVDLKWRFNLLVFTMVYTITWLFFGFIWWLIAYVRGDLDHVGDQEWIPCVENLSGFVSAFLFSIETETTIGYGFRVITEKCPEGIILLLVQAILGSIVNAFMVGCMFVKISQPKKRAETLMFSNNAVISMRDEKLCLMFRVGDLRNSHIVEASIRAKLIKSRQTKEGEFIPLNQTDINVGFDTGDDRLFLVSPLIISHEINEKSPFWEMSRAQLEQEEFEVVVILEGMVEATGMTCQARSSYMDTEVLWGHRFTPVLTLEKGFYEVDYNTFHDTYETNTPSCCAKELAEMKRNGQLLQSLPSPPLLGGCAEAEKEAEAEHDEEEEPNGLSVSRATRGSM
# Experiment: Kir3.1/3.4 Electrophysiology Method (manual whole-cell patch clamp)
# Assay type: cell-based
# Details: Electrophysiology Method (TABLE 1)
# Summary of the method: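 Percent inhibition is relative to the pre-drug current, both leak-subtracted using a potassium-free bather, taken as the mean current at −140 mV. The protocol was a step to +60 mV, a ramp to −140 mV, then a return to −60 mV holding, every 10 s. Cells were rat Kir3.1/3.4-transfected HEK293 recorded by whole-cell patch clamp.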
row,pIC50,SMILES
1,> 6.30,CN1CCN(c2nc(N3CCC(CN4CCCC(N(C)C)C4)CC3)c3c(-c4ccccc4)csc3n2)CC1 (stereo not drawn) [Example 115]
2,> 6.30,CN1CCN(c2nc(N3CCC(CNC4CCC4)CC3)c3c(-c4ccccc4)csc3n2)CC1 [Example 116]
3,> 6.30,CN1CCC(N(C)CC2CCN(c3nc(NCC4CC4)nc4scc(-c5ccccc5)c34)CC2)C1 (stereo not drawn) [Example 119]
4,> 6.30,COCCN1CCN(c2nc(N3CCC(CN(C)C4CCN(C)C4)CC3)c3c(-c4ccccc4)csc3n2)CC1 (stereo not drawn) [Example 122]
5,5.52 to 6.30,O=C1CN(c2nc(N3CCC(CNC4CCC4)CC3)c3c(-c4ccccc4)csc3n2)CCN1 [Example 125]
6,> 6.30,COCCNc1nc(N2CCC(CNC3CCC3)CC2)c2c(-c3ccccc3)csc2n1 [Example 126]
7,5.52 to 6.30,CN1CCC(N(C)CC2CCN(c3nc(N4CCCCC4C(N)=O)nc4scc(-c5ccccc5)c34)CC2)C1 (stereo not drawn) [Example 129]
8,5.00 to 5.52,CNC(=O)c1sc2ncnc(N3CCC(CN(C)C4CCN(C)C4)CC3)c2c1-c1ccccc1 (stereo not drawn) [Example 131]
9,5.52 to 6.30,CN1CCC(N(C)CC2CCN(c3ncnc4sc(C(=O)N(C)C)c(-c5ccccc5)c34)CC2)C1 (stereo not drawn) [Example 136]
10,> 6.30,"c1ccc(-c2csc3nccc(N4CCC(COCCN5CCCC5)CC4)c23)cc1 [Example 142, 3-phenyl-4-[4-(2-pyrrolidin-1-ylethoxymethyl)-1-piperidyl]thieno[2,3-b]pyridine]"
11,> 6.30,Brc1sc2nccc(N3CCC(COCCN4CCCC4)CC3)c2c1-c1ccccc1 [Example 143]
12,> 6.30,c1ccc(-c2csc3nc(N4CCN(CCN5CCCC5)CC4)ncc23)cc1 [Example 145]
13,> 6.30,CN1CCCC1CCNCC1CCN(c2ncc3c(-c4ccccc4)csc3n2)CC1 (stereo not drawn) [Example 146]
14,> 6.30,"c1ccc(-c2csc3nc(N4CCC(COCCN5CCCC5)CC4)ncc23)cc1 [Example 148, 5-phenyl-2-[4-(2-pyrrolidin-1-ylethoxymethyl)-1-piperidyl]thieno[2,3-d]pyrimidine]"
15,> 6.30,c1ccc(-c2csc3nc(N4CCC(COCCN5CCCC5)C4)ncc23)cc1 (stereo not drawn) [Example 149]
16,> 6.30,NC(=O)C1CCN(CCOCC2CCN(c3ncc4c(-c5ccccc5)csc4n3)CC2)C1 (stereo not drawn) [Example 153]
17,> 6.30,c1ccc(-c2csc3nc(N4CCC(COCCN5CC6CC5CO6)CC4)ncc23)cc1 (stereo not drawn) [Example 154]
18,> 6.30,O=C1CCCN1c1sc2nc(N3CCC(COCCN4CCCC4)CC3)ncc2c1-c1ccccc1 [Example 156]
19,> 6.30,CC(C)c1csc2nc(N3CCC(COCCN4CCCC4)CC3)ncc12 [Example 157]
20,> 6.30,O=C1CCCN1c1sc2ncnc(N3CCC(COCCN4CCCC4)CC3)c2c1-c1ccccc1 [Example 163]
21,5.52 to 6.30,"CN1CCCC1CCNC(=O)C1CCN(c2ncnc3scc(-c4ccccc4)c23)CC1 (stereo not drawn) [Example 166, N-[2-(1-methylpyrrolidin-2-yl)ethyl]-1-(5-phenylthieno[2,3-d]pyrimidin-4-yl)piperidine-4-carboxamide]"
22,> 6.30,"c1ccc(CNc2sc3ncnc(N4CCC(COCCN5CCCC5)CC4)c3c2-c2ccccc2)cc1 [Example 168, N-benzyl-5-phenyl-4-[4-(2-pyrrolidin-1-ylethoxymethyl)-1-piperidyl]thieno[2,3-d]pyrimidin-6-amine]"
23,5.52 to 6.30,CN(C)C1CCN(c2ncnc3scc(-c4ccccc4)c23)CC1 [Example 169]

# The next lines start with the molecule.
row,SMILES,pIC50
1,CN1CCN(c2nc(N3CCC(CNCCC4CCCN4C)CC3)c3c(-c4ccccc4)csc3n2)CC1 (stereo not drawn) [Example 114],5.52 to 6.30
2,CN(C)C1CCCN(CC2CCN(c3nc(NCCN4CCCC4)nc4scc(-c5ccccc5)c34)CC2)C1 (stereo not drawn) [Example 117],> 6.30
3,COCCNc1nc(N2CCC(CN(C)C3CCN(C)C3)CC2)c2c(-c3ccccc3)csc2n1 (stereo not drawn) [Example 118],> 6.30
4,"CN1CCC(N(C)CC2CCN(c3nc(N4CCC(C(N)=O)C4)nc4scc(-c5ccccc5)c34)CC2)C1 (stereo not drawn) [Example 120, 1-[4-[4-[[methyl-(1-methylpyrrolidin-3-yl)amino]methyl]-1-piperidyl]-5-phenyl-thieno[2,3-d]pyrimidin-2-yl]pyrrolidine-3-carboxamide]",> 6.30
5,CN1CCC(N(C)CC2CCN(c3nc(N(C)CC(N)=O)nc4scc(-c5ccccc5)c34)CC2)C1 (stereo not drawn) [Example 121],> 6.30
6,CN(C)C1CCCN(CC2CCN(c3nc(N4CCC(C(N)=O)C4)nc4scc(-c5ccccc5)c34)CC2)C1 (stereo not drawn) [Example 123],> 6.30
7,COCCNc1nc(N2CCC(CN3CCCC(N(C)C)C3)CC2)c2c(-c3ccccc3)csc2n1 (stereo not drawn) [Example 124],> 6.30
8,NC(=O)C1CCN(c2nc(N3CCC(CNC4CCC4)CC3)c3c(-c4ccccc4)csc3n2)C1 (stereo not drawn) [Example 128],5.52 to 6.30
9,CN1CCC(N(C)CC2CCN(c3nc(N4CCCC4C(N)=O)nc4scc(-c5ccccc5)c34)CC2)C1 (stereo not drawn) [Example 130],5.52 to 6.30
10,CC(C)NC(=O)c1sc2ncnc(N3CCC(CN(C)C4CCN(C)C4)CC3)c2c1-c1ccccc1 (stereo not drawn) [Example 132],> 6.30
11,CC(C)c1c(C(=O)N(C)C)sc2ncnc(N3CCC(COCCN4CCCC4)CC3)c12 [Example 133],5.52 to 6.30
12,CNC(=O)c1sc2ncnc(N3CCC(COCCN4CCCC4)CC3)c2c1C(C)C [Example 134],5.52 to 6.30
13,CC(C)NC(=O)c1sc2ncnc(N3CCC(COCCN4CCCC4)CC3)c2c1-c1cccc(F)c1 [Example 137],> 6.30
14,CN(C)C(=O)c1sc2ncnc(N3CCC(COCCN4CCCC4)CC3)c2c1-c1cccc(F)c1 [Example 138],> 6.30
15,"CC(C)NC(=O)c1sc2ncnc(N3CCC(COCCN4CCCC4)CC3)c2c1-c1ccccc1 [Example 139, N-isopropyl-5-phenyl-4-[4-(2-pyrrolidin-1-ylethoxymethyl)-1-piperidyl]thieno[2,3-d]pyrimidine-6-carboxamide]",> 6.30
16,CNC(=O)c1sc2ncnc(N3CCC(COCCN4CCCC4)CC3)c2c1-c1ccccc1 [Example 141],> 6.30

row,SMILES,pIC50
1,N#Cc1sc2nccc(N3CCC(COCCN4CCCC4)CC3)c2c1-c1ccccc1 [Example 144],> 6.30
2,NC(=O)[C@H]1CCCN1CCN1CCN(c2ncc3c(-c4ccccc4)csc3n2)CC1 [Example 147],> 6.30
3,NC(=O)[C@@H]1CCN(CCN2CCN(c3ncc4c(-c5ccccc5)csc4n3)CC2)C1 [Example 150],5.52 to 6.30
4,F[C@@H]1CCN(CCOCC2CCN(c3ncc4c(-c5ccccc5)csc4n3)CC2)C1 [Example 151],> 6.30
5,Fc1ccc(-c2csc3nc(N4CCC(COCCN5CCCC5)CC4)ncc23)cc1 [Example 152],> 6.30
6,"CC(=O)Nc1sc2nc(N3CCC(COCCN4CCCC4)CC3)ncc2c1-c1ccccc1 [Example 155, N-[5-phenyl-2-[4-(2-pyrrolidin-1-ylethoxymethyl)-1-piperidyl]thieno[2,3-d]pyrimidin-6-yl]acetamide]",5.52 to 6.30
7,"C(#Cc1ncnc2scc(-c3ccccc3)c12)COCCN1CCCC1 [Example 161, 5-Phenyl-4-[3-(2-pyrrolidinyl-1-ylethoxy)prop-1-ynyl]thieno[2,3-d]pyrimidine]",> 6.30
8,"CC(=O)Nc1sc2ncnc(N3CCC(COCCN4CCCC4)CC3)c2c1-c1ccccc1 [Example 162, N-[5-phenyl-4-[4-(2-pyrrolidin-1-ylethoxymethyl)-1-piperidyl]thieno[2,3-d]pyrimidin-6-yl]acetamide]",> 6.30
9,"c1ccc(-c2csc3ncnc(N4[C@@H]5CC[C@H]4CC(COCCN4CCCC4)C5)c23)cc1 (stereo partly drawn) [Example 164, 5-phenyl-4-[(1S,5R)-3-(2-pyrrolidin-1-ylethoxymethyl)-8-azabicyclo[3.2.1]octan-8-yl]thieno[2,3-d]pyrimidine]",> 6.30
10,"OCC1CC2CCC(C1)N2c1nc(N2CCOCC2)c2c(-c3ccccc3)csc2n1 (stereo not drawn) [Example 165, [8-(4-morpholino-5-phenyl-thieno[2,3-d]pyrimidin-2-yl)-8-azabicyclo[3.2.1]octan-3-yl]methanol]",5.52 to 6.30
11,"N#Cc1sc2ncnc(N3CCC(COCCN4CCCC4)CC3)c2c1-c1ccccc1 [Example 167, 5-phenyl-4-[4-(2-pyrrolidin-1-ylethoxymethyl)-1-piperidyl]thieno[2,3-d]pyrimidine-6-carbonitrile]",> 6.30
12,CCc1nc(N2CCC(N(C)C)CC2)c2c(-c3ccccc3)csc2n1 [Example 170],5.52 to 6.30
13,OCCNc1nc(N2CCC(CCO)CC2)c2c(-c3ccc(F)cc3)csc2n1 [Example 171],5.52 to 6.30
14,COCC1CCN(c2nc(NCCN(C)C)nc3scc(-c4ccccc4)c23)CC1 [Example 173],> 6.30
15,COCC1CCN(c2nc(N3CCN(C)CC3)nc3scc(-c4ccccc4)c23)CC1 [Example 174],> 6.30
